Measurements published in patent publication US11439685B2, “Formulations for treating a fibrotic disease” (TRUSTEES OF BOSTON UNIVERSITY, priority 2020, dated 2022).
“Also recorded” adds a separate entry of the source. Like-named read-outs stand apart in the source and are kept apart here.

Legend:
[1] = Circular dichroism spectroscopy of relaxin-2 fold and stability; assay type: physicochemical; conditions: for time relaxin-2 is stable: 37° C., no loss of alpha helical structure
Procedure: Relaxin-2 loaded PLGA microparticles (RMPs) were prepared based on the water/oil/water (w/o/w) method as described by Igartua, M., et. al., International Journal of Pharmaceutics, 1998, 169(1): 45-54 at 1.27×10-3 wt % loaded relaxin as determined by ELISA analysis. Significant optimization and tailoring of the method was required to obtain the particle. Amounts, time, temperature, mixing speed, polymer LA:GA content were all varied to identify a unique non-obvious set of conditions to prepare the polymer. […] Relaxin-2 in the relaxin-2 microparticles maintained its native secondary and tertiary structure through the w/o/w double-emulsion process. […] Additionally, relaxin-2 was stable at 37° C. over 2 months (FIG. 2, right). The relaxin-2 PLGA microparticles were prepared with batch-to-batch consistency and were resuspended in PEG-600 to reduce aggregation and flocculation, as well as to ease administration through a 23 G needle.
Two amphiphilic hydrogels were synthesized for the physical entrapment of relaxin-2 in order to control its sustained release (FIG. 6). These amphiphilic molecules melted at 95° C. and congealed when slowly cooled back to room temperature strictly from non-covalent interactions. The alkyl chain of 1 and alkyl fluoride chain of 2 allow for hydrophobic interactions between each molecule, while the trizol and thymidine moieties allow for pi-pi stacking. Lastly, the deoxyribose and glucose groups facilitate hydrogen bonding (Godeau, G., et al., Tetrahedron Letters 2010, 51: 1012-1015; Ramen, F. A. et al., Biomaterials. 2017, 145: 72-80). Together, these amphiphilic molecules create unique and stable supramolecular assemblies that are stable at 37° C. for at least two weeks. This stability feature is another novel finding and benefit to the use of the hydrogels. Three gels of each 1 and 2 were created with bovine serum albumin and relaxin-2 at different densities by dissolving each molecule in a solution of phosphate buffered saline with protein and heating to 95° C. for 30 minutes. […]

[2] = test system: collagen I expression in human fibroblast-like synoviocytes (HFLS); experiment: Collagen I expression in synoviocytes treated with relaxin-2 microparticles in transwells; assay type: cell-based
Excerpt: Human fibroblast-like synoviocytes (HFLS) treated with relaxin-2 microparticles in transwells allow for evaluation of the release and efficacy of released relaxin-2 at various time points. […] In the presence of relaxin-2, collagen I is expressed at 20 to 30% of the basal level at weeks 1, 3, and 4.

[3] = test system: glenohumeral joint in an animal model of shoulder contracture; experiment: Range of motion in rat shoulder contracture model; assay type: in vivo, rats
Procedure: The study was approved by the Institutional Animal Care and Use Committee, and 10 Sprague-Dawley rats (250-300 g, Charles River Laboratories, Wilmington, Mass., USA) were used in the study. For each animal, torque was measured per degree, on the intact left shoulder as a function of rotation angle between 80° of internal rotation (negative values by convention) and 60° of external rotation (positive values by convention) prior to any surgical intervention (baseline). […] Therefore, torque values at 60° external rotation (τOUT) and 800 of internal rotation (τINT) were recorded for each animal. The left forelimb of each animal was immobilized using extraarticular internal fixation. Under isoflurane anesthesia, a longitudinal skin incision was made perpendicular to the scapular spine. Two No. 2-0 braided polyester sutures (Ethibond Excel, Ethicon—San Lorenzo, PR, USA) were passed between the medial border of the scapula and the humeral shaft and tightened to immobilize the shoulder joint (FIG. 1, panel A). Muscular structures were not manipulated during surgery, and the animals were allowed normal activity in their cages immediately after the procedure. After 8 weeks of immobilization, the restraining sutures were removed, and the 10 animals were divided into two groups to evaluate changes in ROM (ROM group, n=5) and joint stiffness (stiffness group, n=5). In the ROM group, changes in kinematics were longitudinally quantified in the follow-up period by measuring the ROM achieved with the TOUT and TINT measured at baseline. This was conducted to evaluate whether immobilization mediated a significant reduction in ROM. In the stiffness group, joint kinetics were examined by measuring the differences in TOUT and TINT needed to achieve the original 800 of internal rotation and 60° of external rotation, respectively. […] The baseline measurements for each group were used as internal controls to reduce the total number of animals necessary for the study. […] ROM and torque measurements were performed under general anesthesia using a device that consisted of a sensor assembly, a rotating axle, and an arm clamp. The sensor assembly contained an orientation sensor (3DM-GX3-15, MicroStrain—Williston, Vt.), as well as a reaction torque sensor (TFF400, Futek—Irvine, Calif.) secured to the axle such that the sensing axis was collinear with the center of rotation. […] In the ROM group, pre-set programmable torque values, specific for each animal and measured at baseline (TOUT and TINT), were used as input variables in order to detect changes in rotation ROM with 0.2° resolution. […] For each animal, torque was measured per degree, on the intact left shoulder as a function of rotation angle between 1000 of internal rotation and 600 of external rotation prior to any surgical intervention. […]

[4] = test system: shoulder joint in an animal model of shoulder contracture; experiment: Histological analysis of the shoulder joint in rat contracture model; assay type: in vivo, rats; conditions: immobilized shoulders, FIG. 12
[5] = test system: heart failure; conditions: 30 micrograms/kg/day for 2 days, intravenous infusion; cited from earlier work
[6] = test system: human fibroblasts; conditions: cited from earlier work
[7] = test system: collagen build-up in the lung induced by bleomycin; conditions: cited from earlier work
[8] = test system: cultured renal fibroblasts, epithelial cells and mesangial cells; conditions: TGF-β-induced; cited from earlier work
[9] = cited from earlier work
[10] = test system: scleroderma; conditions: cited from earlier work
[11] = regressed when marimastat was stopped; cited from earlier work

| Molecule | time relaxin-2 is stable [1] | time relaxin-2 is stable ([1]; listed as relaxin-2) | secondary/tertiary structure of relaxin-2 after w/o/w double emulsion process ([1]; circular dichroism, freshly prepared vs emulsified) | collagen I reduced to (densitometry) ([2]; after release of relaxin-2 from microparticles, FIG. 4 legend) | collagen I expression compared to untreated control ([2]; relaxin-2 released over four weeks, synoviocytes) | internal ROM ([3]; intravenous injection at a much greater dose) | internal ROM ([3]; mIA relaxin-2 5 x 2 ug/kg every other day, or single intraarticular RMP approx. 10 ug/kg, follow-up 8 weeks) | internal ROM ([3]; mIA relaxin-2 5 x 2 ug/kg every other day, or single intraarticular RMP approx. 10 ug/kg, follow-up 8 weeks, listed as relaxin-2) | internal ROM ([3]; singular articular injection) | histology: adhesions / hallmarks of arthrofibrosis [4] | trial's primary endpoint of effectiveness [5] | levels of collagen types I and III and fibronectin [6] | collagen build-up in the lung and overall fibrosis [7] | fibronectin levels and degradation [8] | efficacy in animals ([9]; bolus dose) | efficacy in animals ([9]; sustained dose) | trial's primary endpoint of effectiveness ([10]; 25 micrograms/kg/day for 24 weeks, subcutaneous delivery) | adverse events ([10]; in vivo, sc) | adverse effect in patients [11] |
| --- | --- | --- | --- | --- | --- | --- | --- | --- | --- | --- | --- | --- | --- | --- | --- | --- | --- | --- | --- |
| Relaxin-2 | up to 2 months | 2 months | no change; also recorded: unaffected by the double emulsion process | approximately 50% | significant downregulation in collagen I expression | similarly constricted internal ROM compared with the untreated control group | significant increase back to healthy baseline by week 2 | restoration of internal ROM to baseline measurements | similarly constricted internal ROM compared with the untreated control group | lacked any apparent adhesions | did not meet the trial's primary endpoint of effectiveness | reduction | decreased collagen build-up | decreased TGF-β-induced fibronectin levels and increased fibronectin degradation | not be effective | effective | did not meet the trial's primary endpoint of effectiveness | declines in creatine clearance and renal adverse events |  |
| CNC(=O)[C@@H](NC(=O)[C@H](CC(C)C)[C@H](O)C(=O)NO)C(C)(C)C [marimastat] |  |  |  |  |  |  |  |  |  |  |  |  |  |  |  |  |  |  | developed shoulder contractures |
